Test results published in article PMC9769694, “Discovery of Two Inhibitors of the Type IV Pilus Assembly ATPase PilB as Potential Antivirulence Compounds” (Microbiology Spectrum, 2022).
Values joined by “and” are separate entries in the source; they are usually repeats but may differ in a detail not shown here. Equal values may be shown once.

Experiments:
CtPilB = CtPilB (Chloracidobacterium thermophilum, UniProt G2LDI3); test: Malachite green ATPase assay, dose response (benchtop); type: biochemical; details: IC50, CtPilB ATPase activity, full-length CtPilB, curve fitting, three independent experiments
Method: The full-length CtPilB and the CtPilBΔN variant (with the first 139 residues at the N terminus truncated) were purified as preciously described ([29]). The HTS was conducted using 384-well microplates (Greiner, cat no. 781101). Each microwell for the screen contained a 15-μL reaction mixture consisting of 75 nM CtPilB, 0.5 mM ATP, 20 μM of a library compound, and 2% DMSO in activity buffer (50 mM N-tris(hydroxymethyl)methyl-3-aminopropanesulfonic acid [TAPS], 50 mM Tris, 75 mM KCl, 50 mM sodium acetate, 5 mM MgCl2, 50 mM ZnCl2 [pH 8.7]) ([29]). Reaction mixtures were incubated at 55°C for 10 min and transferred to ice for 5 min to stop the enzymatic reaction. MG reagent (50 μL) was added to each well for color development. After a 15-minute incubation, 5 μL of 34% (wt/vol) sodium-citrate (MP Chemicals) was added and the plate was mixed by shaking ([28], [29]). Absorbance at 620 nm (A620) was measured using a SpectraMax M5 microplate reader at room temperature. The HTS was performed at the Virginia Tech Center for Drug Discovery (VTCDD) Screening Laboratory.
The effects of inhibitors on the ATPase activity of CtPilB and CtPilBΔN and the binding of MANT-ATP were determined as described previously ([28], [29]). Stock solutions were prepared by dissolving benserazide hydrochloride (Alfa Aesar) or levodopa (Spectrum Chemical Mfg. Corp.) in dimethyl sulfoxide (DMSO; Fisher Biotech). Next, 10× working stocks for given concentrations of an inhibitor were freshly prepared before their use in an experiment. GraphPad Prism v7.04 was used for curve fitting and Student’s t test was used for statistical analysis.

M. xanthus S motility = test: T4P-mediated social (S) motility, colony expansion on soft agar; type: cell-based, Myxococcus xanthus; details: soft agar, strains YZ1674 (MxPilB) and YZ2232 (MC3PilB), 5 days, P < 0.05
From the text: Benserazide and levodopa were examined to determine whether they could impact the T4P assembly function of PilB in vivo using M. xanthus as the model bacterium ([28]). […] Three M. xanthus strains were used for these experiments. Strain DK10416 lacks S motility because it is a pilB deletion (ΔpilB) mutant ([40]). The other two strains both assemble T4P and are proficient in S motility ([30]). Strain YZ1674 produces the wild-type (WT) M. xanthus PilB (MxPilB). YZ2232 expresses MC3PilB, a PilB chimera with the N terminus of MxPilB fused to the C-terminal ATPase domain of CtPilB ([30]). The PilB ATPase domains of MxPilB and MC3PilB are highly similar, with 66% shared identity and 77% similarity (Fig. S1).
FIG 5 Benserazide and levodopa inhibit T4P-mediated social (S) motility in Myxococcus xanthus. Expansion rates (cm/day) of the MxPilB (YZ1674) and the MC3PilB (YZ2232) strains on soft agar plates by S motility in the presence of (A and C) benserazide and (B and D) levodopa after 5 days of incubation. Results from three independent experiments are shown, each performed in quintuplicates with data points represented by dots of the same color. Horizontal black lines represent overall averages. Expansion rates were normalized by subtracting that of the ΔpilB strain, which has no S motility (also see Fig. S4). Asterisks (*) indicate that the values at the indicated concentrations are statistically different (P < 0.05) from those of the no-inhibitor control.
(§1) M. xanthus was grown and maintained at 32°C in Casitone-yeast extract (CYE) medium ([49]). Motility assays were conducted with strains DK10416 (ΔpilB) ([40]), YZ1674 (ΔpilB att::MxpilB) ([50]), and YZ2232 (ΔpilB att::MC3pilB) ([30], [51]) as previously described ([28]). One modification was that 10% India ink was included in the cell suspension to mark the initial spot on agar plates. All experiments were conducted in quintuplicates and the diameter of the initial spot, as marked by India ink, was subtracted for data analysis.

A. nosocomialis = test: Growth in liquid culture; type: cell-based, Acinetobacter nosocomialis; details: up to 512 μM (highest tested), data not shown
From the text: These include many bacteria with alarming prevalence for causing antibiotic-resistant infection ([12]). […] This is important because, for the development of antivirulence chemotherapies, the small molecules should not have an inhibitory effect on bacterial growth. Otherwise, they would select for resistance, just like antibiotics. From a chemical structure perspective, levodopa is 3,4-dihydroxyphenylalanine (Fig. 2), or phenylalanine with two hydroxyl groups. […] These preliminary studies of structure and activity relationships are consistent with benserazide and levodopa being specific inhibitors of PilB. As mentioned earlier, work with trifluoperazine ([25]) and P4MP4 ([26], [27]) has provided the proof of principle for antivirulence therapies with anti-T4P compounds. It is also encouraging that a compound targeting the adhesin function of the type 1 pilus of the uropathogenic E. coli (UPEC) ([47]) has moved to the clinical trial phase in the drug development pipeline ([48]).

M. xanthus motility = test: Colony expansion of S-motile strains on hard agar; type: cell-based, Myxococcus xanthus; details: strains YZ1674 and YZ2232, P < 0.05
From the text: (§2) On the other hand, YZ1674 and YZ2232, which have both A and S motility, were affected in their expansion on hard agar by both compounds (Fig. S4 and S5) at concentrations similar to those on soft agar. Indeed, the results with hard agar plates mirror those with soft agar. […] Because neither benserazide nor levodopa had any effect on A motility (Fig. S3C and D), the net differences on hard agar at different concentrations of the inhibitor (Fig. S4) can be viewed as confirmation of its effect on S motility (Fig. 5). […] It is plausible that this inhibition is attributable to their effects on the PilB ATPase in vivo.
as §1

[1] = tested on: M. xanthus adventurous (A) motility; test: Expansion of ΔpilB strain DK10416 (A motility only) on hard agar; type: cell-based, Myxococcus xanthus; details: up to 128 μM
From the text: as §2, §1

Sequence of CtPilB (G2LDI3 entry or part of it): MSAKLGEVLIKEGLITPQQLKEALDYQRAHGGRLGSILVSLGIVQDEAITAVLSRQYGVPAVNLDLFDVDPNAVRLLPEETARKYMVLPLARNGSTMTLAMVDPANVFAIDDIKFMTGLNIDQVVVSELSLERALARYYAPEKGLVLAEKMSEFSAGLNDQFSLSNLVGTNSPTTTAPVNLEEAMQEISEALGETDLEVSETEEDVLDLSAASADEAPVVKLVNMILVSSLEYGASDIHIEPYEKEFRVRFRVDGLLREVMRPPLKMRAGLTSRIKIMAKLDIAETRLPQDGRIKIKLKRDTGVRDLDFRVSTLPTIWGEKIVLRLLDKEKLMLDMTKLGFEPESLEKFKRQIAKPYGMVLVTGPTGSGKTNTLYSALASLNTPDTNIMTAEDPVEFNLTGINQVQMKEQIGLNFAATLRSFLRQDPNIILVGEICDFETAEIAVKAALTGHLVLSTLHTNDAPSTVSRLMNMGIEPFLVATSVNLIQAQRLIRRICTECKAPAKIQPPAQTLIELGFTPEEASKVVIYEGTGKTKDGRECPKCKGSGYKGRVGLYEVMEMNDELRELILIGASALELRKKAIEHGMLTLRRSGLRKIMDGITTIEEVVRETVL

Structure (SMILES): NC(CO)C(=O)NNCc1ccc(O)c(O)c1O (stereo not shown) [benserazide]
- IC50 (CtPilB): 2.1 ± 0.4 µM
- concentration giving significant inhibition of S motility (M. xanthus S motility): ≥ 8 µM
- effect on growth in liquid culture (A. nosocomialis): neither benserazide nor levodopa had any discernible effect on the growth
- concentration giving statistically significant reduction of expansion on hard agar (M. xanthus motility): ≥ 8 µM
- effect on expansion of DK10416 (A motility) [1]: neither benserazide nor levodopa influenced the expansion of DK10416

Structure (SMILES): N[C@@H](Cc1ccc(O)c(O)c1)C(=O)O [levodopa, 3,4-dihydroxyphenylalanine]
- IC50 (CtPilB): 58 µM and 58.8 µM
- concentration giving significant inhibition of S motility (M. xanthus S motility): ≥ 32 µM
- effect on growth in liquid culture (A. nosocomialis): neither benserazide nor levodopa had any discernible effect on the growth
- concentration giving statistically significant reduction of expansion on hard agar (M. xanthus motility): ≥ 32 µM
- effect on expansion of DK10416 (A motility) [1]: neither benserazide nor levodopa influenced the expansion of DK10416
